Data from article PMC8623467, “Biochemical Characterization of Recombinant Isocitrate Dehydrogenase and Its Putative Role in the Physiology of an Acidophilic Micrarchaeon” (Microorganisms, 2021).

Test system: T1, MhIDH6x His
T1 construct: gene icd2; full-length; N-terminal 6xHis tag kept (primer: MHHHHHHEEQKKESIS...); C-terminus AIKSA from primer; pBAD202, E. coli Rosetta pRARE; Ni-IMAC and SEC; homodimer only modelled
Test: NADPH formation at […] nm, Michaelis-Menten fit
Format: biochemical, Candidatus Micrarchaeum harzensis
Settings: 100 mM TRIS/HCl pH 8.0, 28 °C, Mg2+ (5 mM MgCl2 standard mixture)

Structure (SMILES) | Km (1 mM DL-isocitrate) [µM] | Km (20 mM NADP+ (Figure 4 legend)) [µM]
NC(=O)c1ccc[n+]([C@@H]2O[C@H](COP(=O)(O)OP(=O)(O)OC[C@H]3O[C@@H](n4cnc5c(N)ncnc54)[C@H](OP(=O)(O)O)[C@@H]3O)[C@@H](O)[C@H]2O)c1 [NADP^+] | 1940 ± 120 | –
O=C(O)CC(C(=O)O)C(O)C(=O)O (racemic) [DL-isocitrate] | – | 53 ± 5.63
